The numbers were not newly measured in patent US11103503B2, “Pharmaceutical compositions of Lurasidone” (SLAYBACK PHARMA LLC, priority 2019, dated 2021), which cites them from elsewhere.

For data set [1] the following is noted: fed state.

With `O=C1[C@@H]2[C@H]3CC[C@H](C3)[C@@H]2C(=O)N1C[C@@H]1CCCC[C@H]1CN1CCN(c2nsc3ccccc23)CC1` [Lurasidone, N-4-4-(1,2-benzisothiazol-3-yl)-1-piperazinyl-(2R,3R)-2,3-tetramethylene-butyl-(1R,2S,3R,4'S)-2,3-bicyclo[2.2.1]heptanedicarboxyimide], the solubility in water entry is recorded as “very slightly soluble”. The administered dose absorbed in data set [1] is reported as 9-19%.
